Square brackets hold non-standard residues; d marks the D form. Peptide text beside a SMILES is read from it. * marks the point of attachment. Sta = CC(C)C[C@H](N)[C@@H](O)CC(=O)O; Isovaleryl = CC(C)CC(=O)*
How the values were obtained:
[1] = system: LC3-II; experiment: LC3-II accumulation by anti-LC3 Western blotting; type: cell-based, human; settings: for LC3-II accumulation (Western blot, words): 10 hours; for LC3-II accumulation, density quantification of Western blots: 10 hours of CQ-treatment; for effect on LC3-II levels and hence macroautophagy: 293T, HaCat and MDAMC, 24 h, 1000 U/ml
Procedure: Cells were lysed in ice cold lysis buffer (50 mM Tris-HCl pH 8.0, 140 mM NaCl, 1 mM DTT, 1.5 mM MgCl2, 0.5% NP-40 with Complete protease inhibitor cocktail, Roche, Indianapolis, Ind.) for 5 mim on ice (about 10^6 cells/100 μl). Whole cells and cell debris were pelleted by low speed centrifugation (400 g, 3 mil) and cleared supernatants were transferred to a new tube. Protein concentration was determined by BCA protein assay (Pierce, Rockford, Ill.). […] Primary antibodies were visualized with HRP-conjugated goat anti-rabbit IgG (Biorad, Hercules; CA) and the ECLplus detection system (Amersham Biosciences, UK).
This also allowed for extension of the analysis from epithelial cell lines to MHC class II-positive cell types that are more difficult to transfect, such as B cell lines and primary monocytes/dendritic cells. The fact that autophagosome-associated LC3 (called LC3-II) and free cytosolic LC3 (called LC3-I) can be distinguished by their apparent molecular weights in SDS-PAGE gel electrophoresis (16 and 18 lcD, respectively) was used, since it can be quantified separately in anti-LC3 Western blots.

[2] = system: MDAMC cells; experiment: Colocalization of GFP-LC3 with compartment markers by confocal microscopy in MDAMC cells; type: cell-based, human
[3] = system: GFP-LC3 labeled autophagosomes; type: cell-based, human; parameters: accumulation of GFP-LC3-labeled autophagosomes: dose or concentration left out as unconfirmed
[4] = system: immature DCs; settings: 10 hr of CQ treatment
[5] = system: MDAMC cells stably transfected with GFP-LC3; settings: CQ-treated versus untreated cells
Procedure: MDAMC cells stably transfected with GFP-LC3 were fixed for 1 h at RT with 4% paraformaldehyde (PFA, Electron Microscopy Sciences) in 0.25 M Hepes, pH 7.4, followed by overnight fixation at 4° C. in 8% PFA/Hepes. Cells were washed 1× in PBS, quenched with 0.1 M NH4Cl in PBS for 10 min, scraped into 1% gelatin in PBS and then embedded in 5% gelatin in PBS. Small pieces of the gelatin pellets were infiltrated overnight at 4° C. with 2.3 M sucrose in PBS, mounted onto cryospecimen pins and frozen in liquid nitrogen. […] After quenching with 0.1 M NH4Cl in PBS for 10 min, the grids were incubated for 20 min in a solution of 1% fish skin gelatin (FSG, Sigma-Aldrich) in PBS. They were then labeled with rabbit anti-HLA-DR antiserum C6861 (a gift from Peter Cresswell, Yale University, New Haven, Conn.) in PBS-FSH for 30 min at RT, washed 4× in PBS and then incubated with 10 or 15 nm protein A-gold (purchased from the Department of Cell Biology, University of Utrecht, Netherlands). After 4 more washes in PBS, grids were fixed in 1% glutaraldehyde in PBS for 5 min at RT, washed 5× in PBS and again quenched with 0.1 M NH4Cl in PBS for 10 min. The same labeling procedure was repeated with a rabbit anti-GFP antibody (Invitrogen-Molecular Probes, Carlsbad, Calif.) and after final fixation in 1% glutaraldehyde, grids were washed 8× in HPLC-grade water.

[6] = system: atg12; experiment: Knockdown of atg12 by siRNA in MDAMC cells; type: cell-based, human
Description: The following 21-nt siRNA oligos were used:
Atg12 antisense: 5′-[…]dT (SEQ ID NO:6; nt. 687-705 of NM_004707). As a control, lamin A/Cspecific siRNA from Dharmacon (Lamin sense: 5′-CUGGACUUCCAGAAGAACAdTdT (SEQ ID NO:7); Lamin antisense: 5′-UGUUCUUCUGGAAGUCCAGdTdT (SEQ ID NO:8) or firefly luciferase-specific siRNA (GL2 sense: 50-CGUACGCGGAAUACUUCGAdTdT; SEQ ID NO:9; GL2 antisense: 5′-UCGAAGUAUUCCGCGUACGdTdT; SEQ ID NO:10) was used. siRNA duplexes were delivered by transfection with lipofectamine 2000 (Invitrogen) at 30 pmol siRNA+[…] lipofectamine/well in a 24-well format, and effect of knockdown was analyzed after 2-3 days.

[7] = MDAMC cells, CQ 50 μM, E64 28 μM, Leupeptin 40 μM and Pepstatin A 15 μM together

## CC(C)C[C@H](NC(=O)[C@H]1O[C@@H]1C(=O)O)C(=O)NCCCCN=C(N)N [E64]
[1]; [7]
  LC3-II accumulation (Western blot, words): strong accumulation of LC3-II

## CC(=O)N[C@@H](CC(C)C)C(=O)N[C@@H](CC(C)C)C(=O)N[C@H](C=O)CCCNC(=N)N [Leupeptin]
[1]; [7]
  LC3-II accumulation (Western blot, words): strong accumulation of LC3-II

## CC(C)CC(=O)N[C@H](C(=O)N[C@H](C(=O)N[C@@H](CC(C)C)[C@@H](O)CC(=O)N[C@@H](C)C(=O)N[C@@H](CC(C)C)[C@@H](O)CC(=O)O)C(C)C)C(C)C [Pepstatin A] (Isovaleryl-VV[Sta]A[Sta]-OH)
[1]; [7]
  LC3-II accumulation (Western blot, words): strong accumulation of LC3-II

## CCN(CC)CCCC(C)Nc1ccnc2cc(Cl)ccc12 (stereo not drawn) [chloroquine]
[1]; 293 cells
  LC3-II accumulation, density quantification of Western blots: 30 fold
[1]; HaCat cell line, time course
  onset of increase of cellular LC3-II levels: already increased 1 hour after CQ-treatment
[1]; HaCat cells
  LC3-II accumulation, density quantification of Western blots: 5 fold
[1]; MDAMC cells
  LC3-II accumulation, density quantification of Western blots: 5 fold
[1]; [7]
  LC3-II accumulation (Western blot, words): strong accumulation of LC3-II
[1]; epithelial and B cell lines, CD14+ monocytes, dendritic cells
  LC3-II accumulation (Western blot, words): strongly accumulated
[2]; IFNγ-treated MDAMC, after chloroquine treatment (38 untreated)
  HLA-DM colocalization with GFP-LC3, LSM510 histogram tool: 45%
[2]; IFNγ-treated MDAMC, after chloroquine treatment (40 untreated)
  MHC class II colocalization with GFP-LC3, LSM510 histogram tool: 44%
[2]; IFNγ-treated MDAMC, after chloroquine treatment (52 untreated)
  HLA-DM+ vesicles colocalized with GFP-LC3, LSM 510 profile tool: 71%
[2]; IFNγ-treated MDAMC, after chloroquine treatment (58 untreated)
  MHC class II+ compartments colocalized with GFP-LC3, LSM 510 profile tool: 86%
[2]; MDAMC, after chloroquine treatment (7% untreated)
  EEA1 colocalization with GFP-LC3, histogram analysis: 21%
[2]; MDAMC, after chloroquine treatment (9% untreated)
  EEA1 colocalization with GFP-LC3, profile analysis: 26%
[3]; B-LCL, immature and mature DCs, chloroquine for 10 hr
  accumulation of GFP-LC3-labeled autophagosomes: strongly accumulated
[3]; HaCat, HeLa, MDAMC, 293 cell lines, 10 hours of CQ-treatment
  accumulation of GFP-LC3 in cytosolic vesicles: strongly accumulated in cytosolic vesicles
[4]
  MHC class II-labeled compartments positive for GFP-LC3: 41% (±7%)
[5]
  frequency of GFP-LC3/MHC class II double-labeled multivesicular compartments: found much more frequently

## ATG12 siRNA: 21-nt siRNA duplex against atg12, SEQ ID NO: 5 and 6 (nt. 687-705 of NM_004707) (chain 1 UCAACUUGCUACUACAUGAUDT; chain 2 UCAUGUAGUAGCAAGUUGAUDT; chemistry not fully specified; listed as Homo sapiens)
[6]; MDAMC cells stably expressing GFP-LC3, 2 days after transfection, CQ 6 hr
  accumulation of GFP-LC3+ vesicles upon CQ treatment after knockdown: completely abrogates accumulation of these vesicles
[6]; MDAMC cells stably expressing MP1-LC3, IFNγ 200 U/ml, 50 μM chloroquine last 6 hours
  colocalization of MP1-LC3-containing vesicles with MHC class II compartments after knockdown: completely abrogated

## IFN-α
[1]
  effect on LC3-II levels and hence macroautophagy: not affected

## IFNγ: Recombinant human IFNγ
[1]
  effect on LC3-II levels and hence macroautophagy: not affected
[2]; human epithelial cell lines, IFNγ treatment
  formation of MHC class II positive compartments: induced the formation of MHC class II positive compartments
